Test results taken from patent US9416115B2, “Fused heterocyclic compounds as ion channel modulators” (Gilead Sciences, Inc., priority 2013, dated 2016).
Like-named read-outs stand apart in the source and are kept apart here.

Assays:
[1] = target: T1, hNaV1.2 (SCN2A) (Homo sapiens, UniProt Q99250); test: Use-dependent inhibition of the CNS Nav1.2 sodium channel; assay type: cell-based; details: use-dependent block, 25 Hz, pulse 20, read-out: Nav1.2 UDB 25 Hz 10 uM
T1 construct: expressed in transfected cells
T1 sequence (Q99250 whole entry): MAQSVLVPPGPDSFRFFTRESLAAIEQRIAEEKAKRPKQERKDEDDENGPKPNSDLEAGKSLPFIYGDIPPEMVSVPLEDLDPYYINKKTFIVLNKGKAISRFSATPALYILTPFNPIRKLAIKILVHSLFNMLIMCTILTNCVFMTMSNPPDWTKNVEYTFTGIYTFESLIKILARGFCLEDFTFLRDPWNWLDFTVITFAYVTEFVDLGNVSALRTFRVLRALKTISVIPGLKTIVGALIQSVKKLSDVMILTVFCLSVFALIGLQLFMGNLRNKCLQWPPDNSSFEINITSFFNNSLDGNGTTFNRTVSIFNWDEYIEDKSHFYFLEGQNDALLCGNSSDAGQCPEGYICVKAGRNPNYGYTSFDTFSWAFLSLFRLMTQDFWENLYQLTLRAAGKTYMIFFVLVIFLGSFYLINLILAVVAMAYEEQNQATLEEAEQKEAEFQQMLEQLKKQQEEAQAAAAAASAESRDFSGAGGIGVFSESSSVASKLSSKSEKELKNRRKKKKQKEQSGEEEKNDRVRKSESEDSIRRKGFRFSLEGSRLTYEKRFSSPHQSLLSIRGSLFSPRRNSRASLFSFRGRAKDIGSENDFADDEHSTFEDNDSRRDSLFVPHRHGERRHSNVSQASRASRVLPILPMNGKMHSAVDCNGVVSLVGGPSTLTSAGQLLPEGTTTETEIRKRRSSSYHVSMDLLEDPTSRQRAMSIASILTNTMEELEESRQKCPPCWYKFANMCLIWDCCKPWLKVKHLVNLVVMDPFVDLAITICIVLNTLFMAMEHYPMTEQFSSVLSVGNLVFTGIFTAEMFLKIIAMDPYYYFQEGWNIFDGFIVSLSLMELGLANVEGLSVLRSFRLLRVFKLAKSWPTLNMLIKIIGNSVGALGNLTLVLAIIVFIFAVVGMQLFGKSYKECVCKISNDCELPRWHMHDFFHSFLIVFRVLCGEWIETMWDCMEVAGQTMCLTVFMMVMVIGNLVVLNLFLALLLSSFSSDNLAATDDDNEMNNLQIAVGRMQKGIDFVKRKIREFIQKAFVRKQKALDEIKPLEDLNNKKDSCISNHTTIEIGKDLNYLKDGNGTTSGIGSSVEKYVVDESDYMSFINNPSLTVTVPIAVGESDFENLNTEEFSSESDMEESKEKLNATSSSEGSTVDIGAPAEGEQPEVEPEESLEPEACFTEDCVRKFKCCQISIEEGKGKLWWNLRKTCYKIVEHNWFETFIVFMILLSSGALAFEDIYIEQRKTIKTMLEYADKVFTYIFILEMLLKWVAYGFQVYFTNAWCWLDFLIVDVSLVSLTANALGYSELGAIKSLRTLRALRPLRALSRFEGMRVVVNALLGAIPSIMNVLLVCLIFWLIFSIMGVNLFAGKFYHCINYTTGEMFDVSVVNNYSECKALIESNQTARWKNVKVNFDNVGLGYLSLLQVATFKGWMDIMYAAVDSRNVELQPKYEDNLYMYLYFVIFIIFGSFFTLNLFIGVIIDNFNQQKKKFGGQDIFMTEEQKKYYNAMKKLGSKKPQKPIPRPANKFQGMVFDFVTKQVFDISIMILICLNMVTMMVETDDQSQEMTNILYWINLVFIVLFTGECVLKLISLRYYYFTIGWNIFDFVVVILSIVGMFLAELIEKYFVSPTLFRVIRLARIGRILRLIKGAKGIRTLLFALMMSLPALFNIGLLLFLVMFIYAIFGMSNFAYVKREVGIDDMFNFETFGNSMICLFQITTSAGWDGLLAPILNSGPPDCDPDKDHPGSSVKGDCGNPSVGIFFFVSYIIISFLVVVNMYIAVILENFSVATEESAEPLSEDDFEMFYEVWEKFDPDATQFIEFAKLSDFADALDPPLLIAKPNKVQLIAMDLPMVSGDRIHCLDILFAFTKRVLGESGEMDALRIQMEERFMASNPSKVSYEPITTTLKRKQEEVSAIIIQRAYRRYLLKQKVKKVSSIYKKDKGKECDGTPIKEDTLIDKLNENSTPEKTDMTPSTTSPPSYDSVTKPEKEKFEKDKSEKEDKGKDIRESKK
T1 sequence (Q07699 19-218 partner): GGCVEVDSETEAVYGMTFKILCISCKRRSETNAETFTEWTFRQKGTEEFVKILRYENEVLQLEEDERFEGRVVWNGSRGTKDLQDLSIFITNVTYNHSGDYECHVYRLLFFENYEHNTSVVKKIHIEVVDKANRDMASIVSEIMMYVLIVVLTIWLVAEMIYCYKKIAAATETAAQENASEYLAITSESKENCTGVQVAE
T1 sequence (O60939 30-215 partner): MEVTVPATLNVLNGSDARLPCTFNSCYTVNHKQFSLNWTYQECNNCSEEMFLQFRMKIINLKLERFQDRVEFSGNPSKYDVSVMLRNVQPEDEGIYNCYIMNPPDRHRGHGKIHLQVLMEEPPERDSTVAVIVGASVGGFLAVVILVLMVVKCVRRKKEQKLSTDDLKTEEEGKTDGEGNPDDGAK
Description: HEK-293 cells stably expressing wild-type (WT) hNaV1.2 (SCN2A NCBI # NM_021007.2, SCN1B NCBI # NM_001037.4, SCN2B NCBI # NM_004588.2) were used to record INa. Cells are maintained with standard tissue culture procedures and stable channel expression is maintained with 800 ug/mL G418 and 3 ug/mL Puromycin in the culture medium. Unless otherwise noted, all reagents are purchased from Sigma-Aldrich (St Louis, Mo., U.S.A.).
Assays measuring Use-Dependent Block (UDB) of Nav1.2 are performed on an automated electrophysiology platform, QPatch 16X or QPatch HT (Sophion Bioscience, Copenhagen, Denmark), using the whole cell patch clamp technique to measure currents through the cell membrane. Series resistance compensation is set to 100% and series resistance and whole-cell compensation are performed automatically. Currents stored in the Sophion Bioscience Oracle database (Sophion Bioscience, Copenhagen, Denmark). Analysis is performed using QPatch Assay software and data are compiled in Excel 2010 (Microsoft, Seattle, Wash., U.S.A.).
The internal (pipette) solution consists of (in mM) 105 CsF, 10 NaF, 20 CsCl, 2 EGTA, 10 HEPES, 10 Dextrose with a pH of 7.35 and osmolarity of 300 mOsmol/kg. The external (bath) solution contains in (mM): 145 NaCl, 4 KCl, 1.8 CaCl2, 1 MgCl2, 10 dextrose, 10 HEPES, with a pH of 7.35 and osmolarity of 310 mOsmol/kg. Experiments are carried out at 23-25° C.
Compound stocks are routinely made by the Gilead Sample Bank in vials to 10 mM in dimethyl sulfoxide (DMSO). In some cases, when compounds are not soluble in DMSO, they are made in 100% ethanol. Stocks are sonicated as necessary. […]
Cells are allowed to stabilize for 10 min after establishment of the whole-cell configuration before current is measured. The test compound is applied 2 times at 60 second intervals. After the second compound addition, a 200 second wait period was imposed to allow for equilibration. Leak currents are subtracted by using an online P/4 procedure and all currents are low-pass Bessel filtered at 5 kHz and digitized at […].
Results are presented as mean percentage inhibition.
Use-dependent block of Nav1.2 peak current is measured during pulse number 20 of a voltage pulse train (0 mV, 20 ms, 20 pulses, 25 Hz) from a holding potential of −120 mV.
Currents are normalized to the peak current recorded in response to the first pulse in each frequency train. The voltage protocol for UDB was performed in the absence and presence of compound and percentage inhibition was calculated with respect to the compound free condition.

[2] = target: wild-type human cardiac sodium channel, hNav1.5 (Homo sapiens, UniProt Q14524); test: Peak INa screening assay (tonic block and use-dependent block); assay type: cell-based
Chain of wild-type human cardiac sodium channel, hNav1.5 (Q14524 whole entry): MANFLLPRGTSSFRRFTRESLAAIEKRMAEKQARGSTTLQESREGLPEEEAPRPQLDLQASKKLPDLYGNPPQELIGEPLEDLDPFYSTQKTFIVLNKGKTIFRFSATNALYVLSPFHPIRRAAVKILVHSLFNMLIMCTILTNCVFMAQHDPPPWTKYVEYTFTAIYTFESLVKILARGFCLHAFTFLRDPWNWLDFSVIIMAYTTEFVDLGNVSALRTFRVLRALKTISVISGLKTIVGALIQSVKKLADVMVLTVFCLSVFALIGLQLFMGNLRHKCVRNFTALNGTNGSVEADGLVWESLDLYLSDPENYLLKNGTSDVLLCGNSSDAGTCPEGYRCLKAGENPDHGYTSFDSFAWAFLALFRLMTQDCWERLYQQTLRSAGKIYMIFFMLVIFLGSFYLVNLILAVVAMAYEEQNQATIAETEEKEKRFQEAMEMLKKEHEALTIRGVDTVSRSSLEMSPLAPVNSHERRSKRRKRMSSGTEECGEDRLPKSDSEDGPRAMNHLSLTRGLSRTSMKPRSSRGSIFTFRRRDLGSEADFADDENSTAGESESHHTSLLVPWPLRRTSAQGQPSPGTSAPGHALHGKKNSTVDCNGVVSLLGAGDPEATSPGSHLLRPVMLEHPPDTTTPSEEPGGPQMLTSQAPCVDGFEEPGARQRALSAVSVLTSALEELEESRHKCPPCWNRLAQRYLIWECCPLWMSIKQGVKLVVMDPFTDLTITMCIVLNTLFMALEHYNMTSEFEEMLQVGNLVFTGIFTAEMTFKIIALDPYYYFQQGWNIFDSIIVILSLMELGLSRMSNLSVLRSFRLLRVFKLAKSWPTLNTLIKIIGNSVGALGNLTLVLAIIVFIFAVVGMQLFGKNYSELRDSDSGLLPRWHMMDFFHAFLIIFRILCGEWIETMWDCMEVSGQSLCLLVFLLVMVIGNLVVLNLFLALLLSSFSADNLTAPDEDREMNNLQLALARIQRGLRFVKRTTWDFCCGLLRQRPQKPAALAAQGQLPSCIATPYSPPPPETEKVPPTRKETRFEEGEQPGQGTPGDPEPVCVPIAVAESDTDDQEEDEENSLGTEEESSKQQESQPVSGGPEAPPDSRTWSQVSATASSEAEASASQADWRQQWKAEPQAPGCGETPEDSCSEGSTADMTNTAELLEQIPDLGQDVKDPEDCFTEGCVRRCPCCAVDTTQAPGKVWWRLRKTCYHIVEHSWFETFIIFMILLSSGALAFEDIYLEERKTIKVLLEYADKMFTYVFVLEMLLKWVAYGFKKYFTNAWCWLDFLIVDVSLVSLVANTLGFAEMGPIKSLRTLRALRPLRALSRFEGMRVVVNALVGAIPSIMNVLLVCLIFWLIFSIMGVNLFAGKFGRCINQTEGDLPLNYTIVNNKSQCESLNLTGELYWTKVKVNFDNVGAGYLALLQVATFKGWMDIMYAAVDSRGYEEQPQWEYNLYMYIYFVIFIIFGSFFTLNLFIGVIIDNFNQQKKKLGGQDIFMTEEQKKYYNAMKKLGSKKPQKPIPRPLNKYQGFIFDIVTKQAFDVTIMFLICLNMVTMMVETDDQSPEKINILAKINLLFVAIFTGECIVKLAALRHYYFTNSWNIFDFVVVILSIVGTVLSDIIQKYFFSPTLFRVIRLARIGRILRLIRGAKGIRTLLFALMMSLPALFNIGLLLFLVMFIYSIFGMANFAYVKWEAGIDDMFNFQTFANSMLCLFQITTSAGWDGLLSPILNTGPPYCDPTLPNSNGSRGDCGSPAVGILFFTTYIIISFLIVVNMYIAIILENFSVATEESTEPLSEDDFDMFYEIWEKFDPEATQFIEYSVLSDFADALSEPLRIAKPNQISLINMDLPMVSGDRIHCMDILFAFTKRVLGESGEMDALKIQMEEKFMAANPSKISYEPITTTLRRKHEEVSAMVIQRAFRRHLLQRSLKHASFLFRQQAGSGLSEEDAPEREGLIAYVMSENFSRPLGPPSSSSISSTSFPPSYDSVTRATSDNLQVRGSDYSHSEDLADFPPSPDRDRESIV
Description: The cardiac late sodium current (Late INa) and peak sodium current (Peak INa) assays are performed on an automated electrophysiology platform, QPatch 16X or QPatch HT (Sophion Bioscience, Copenhagen, Denmark) using the whole cell patch clamp technique to measure currents through the cell membrane. The assay uses an HEK293 (human embryonic kidney) cell line heterologously expressing the wild-type human cardiac sodium channel, hNav1.5, purchased from Millipore (Billerica, Mass.). No beta subunits were coexpressed with the Na channel alpha subunit. Cells are maintained with standard tissue culture procedures and stable channel expression is maintained with 400 μg/mL Geneticin in the culture medium. Experiments are carried out at 23-25° C.
For both the Late INa and Peak INa assays, series resistance compensation is set to 100% and series resistance and whole-cell compensation are performed automatically. Currents are digitized at 25 kHz and low-pass filtered at 5 kHz and stored in the Sophion Bioscience Oracle database (Sophion Bioscience, Copenhagen, Denmark). Analysis is performed using QPatch Assay software and data are compiled in Excel 2010 (Microsoft, Seattle, Wash., U.S.A.).
Compound stocks are routinely made by the Gilead Sample Bank in vials to 10 mM in dimethyl sulfoxide (DMSO). In some cases, when compounds are not soluble in DMSO, they are made in 100% ethanol. Stocks are sonicated as necessary. The extracellular solution for screening Late INa is composed of: 140 mM NaCl, 4 mM KCl, 1.8 mM CaCl2, 1 mM MgCl2, 10 mM HEPES and 10 mM Dextrose with pH adjusted to 7.35 using NaOH. The intracellular solution contains: 105 mM CsF, 20 mM CsCl, 10NaF, 2 mM EGTA, 10 mM HEPES and 10 mM Dextrose with pH adjusted to 7.35 with CsOH. Compounds are diluted in extracellular solution using a MicroLab Nimbus (Hamilton Robotics, Reno, Nev.) to between 0.3 and 3 μM in glass vials and transferred to glass well plates before robotic addition to the cells. The 0 mM Na extracellular solution (0Na-ECF) used at the end of each experiment for the Late INa and Peak INa assays to measure baseline current contains: 140 Choline-Cl; 4 mM KCl, 1.8 mM CaCl2; 1 mM MgCl2; 10 mM HEPES and 10 mM Dextrose with pH was adjusted to 7.35 with CsOH.
Compounds were evaluated for their effect Nav1.5 Peak INa. It is contemplated that the compounds of Formula I avoid significant block of peak INa. Since the peak INa in the cells used herein can be very large, introducing artifacts in the recording, the concentration of Na^+ in the bath can be reduced to 40 mM by isosmotic replacement of Na^+ with Choline (see below).
Tonic Block (TB) of Peak INa was measured using a voltage step to −20 mV from a holding potential of −100 mV at a low stimulation frequency of 0.1 Hz. Use-Dependent Block (UDB) of Peak INa was measured during pulse number 50 of a pulse train (−20 mV, 20 ms, 50 pulses, 3 Hz) from a holding potential of −100 mV.
The extracellular solution for screening Peak INa is composed of: 40 mM NaCl, 100 mM Choline-Cl, 4 mM KCl, 1.8 mM CaCl2, 1 mM MgCl2 10 mM HEPES and 10 mM Dextrose with pH adjusted to 7.35 using NaOH. The intracellular solution used for the Peak INa assay is the same as outlined for the Late INa assay (see above).
After establishing the whole cell recording configuration, channels were stimulated to open with low frequency (0.1 Hz) so that the recording can be monitored and the extent to which the recording has stabilized can be assessed.
The test compound is then applied at 1 or 3 μM and was added 2 times at 60 second intervals. After the second compound addition, a 200 second wait period was imposed to allow for equilibration. Voltage protocols for TB and UDB are were performed in the absence and presence of compound and TB and UDB are calculated with respect to the compound free condition. Both TB and UDB were analyzed by incorporating rundown correction for the peak INa.

[3] = tonic block of Peak INa, 0.1 Hz, holding -100 mV, read-out: Peak TB 3 uM
[4] = use-dependent block of Peak INa, 3 Hz, pulse 50, read-out: Peak UDB 3 Hz 3 uM

Structure (SMILES) | inhibition at 10 µM [1] [%] | inhibition at 3 µM [2, 3] [%] | inhibition at 3 µM [2, 4] [%]
FC(F)(F)Oc1ccc(-c2ccc3onc(OCc4ncccn4)c3c2)cc1 [Example 1, 3-(pyrimidin-2-ylmethoxy)-5-(4-(trifluoromethoxy)phenyl)benzo[d]isoxazole] | 10.2 | – | –
Cc1cc(OC(F)(F)F)ccc1-c1ccc2onc(OCc3ncccn3)c2c1 [Example 3, 5-(2-methyl-4-(trifluoromethoxy)phenyl)-3-(pyrimidin-2-ylmethoxy)benzo[d]isoxazole] | < 5 | 23.2 | 11.8
COc1cc(OC(F)(F)F)ccc1-c1ccc2onc(OCc3ncccn3)c2c1 [Example 4, 5-(2-methoxy-4-(trifluoromethoxy)phenyl)-3-(pyrimidin-2-ylmethoxy)benzo[d]isoxazole] | 13.9 | 38 | 17.9
Cc1ccnc(COc2noc3ccc(-c4ccc(OC(F)(F)F)cc4)cc23)n1 [Example 5, 3-((4-methylpyrimidin-2-yl)methoxy)-5-(4-(trifluoromethoxy)phenyl)benzo[d]isoxazole] | < 5 | 18 | < 5
Fc1cc(C(F)(F)F)ccc1-c1ccc2onc(OCc3ncccn3)c2c1 [Example 6, 5-(2-fluoro-4-(trifluoromethyl)phenyl)-3-(pyrimidin-2-ylmethoxy)benzo[d]isoxazole] | < 5 | 29.8 | 12.6
Cc1cc(-c2ccc3onc(OCc4ncccn4)c3c2)ccc1OC(F)(F)F [Example 7, 5-(3-methyl-4-(trifluoromethoxy)phenyl)-3-(pyrimidin-2-ylmethoxy)benzo[d]isoxazole] | < 5 | 16.3 | < 5
Fc1cc(-c2ccc3onc(OCc4ncccn4)c3c2)ccc1Cl [Example 8, 5-(4-chloro-3-fluorophenyl)-3-(pyrimidin-2-ylmethoxy)benzo[d]isoxazole] | < 5 | 13.1 | < 5
FC(F)(F)c1ccc(-c2ccc3onc(OCc4ncccn4)c3c2)cc1 [Example 9, 3-(pyrimidin-2-ylmethoxy)-5-(4-(trifluoromethyl)phenyl)benzo[d]isoxazole] | < 5 | 41.3 | 10.3
FC(F)(F)Oc1cccc(-c2ccc3onc(OCc4ncccn4)c3c2)c1 [Example 10, 3-(pyrimidin-2-ylmethoxy)-5-(3-(trifluoromethoxy)phenyl)benzo[d]isoxazole] | < 5 | 16.4 | 5.7
COc1cc2onc(OCc3ncccn3)c2cc1-c1ccc(Cl)c(F)c1 [Example 13, 5-(4-chloro-3-fluorophenyl)-6-methoxy-3-(pyrimidin-2-ylmethoxy)benzo[d]isoxazole] | 5.6 | 10.7 | < 5
COc1cc2onc(OCc3ncccn3)c2cc1-c1ccc(OC(F)(F)F)c(C)c1 [Example 14, 6-methoxy-5-(3-methyl-4-(trifluoromethoxy)phenyl)-3-(pyrimidin-2-ylmethoxy)benzo[d]isoxazole] | 9.6 | 23.8 | 6.4
COc1cc2onc(OCc3ncccn3)c2cc1-c1ccc(F)c(Cl)c1 [Example 15, 5-(3-chloro-4-fluorophenyl)-6-methoxy-3-(pyrimidin-2-ylmethoxy)benzo[d]isoxazole] | < 5 | 14.3 | < 5
Cc1cc(-c2ccc(OC(F)(F)F)cc2)cc2c(OCc3ncccn3)noc12 [Example 16, 7-methyl-3-(pyrimidin-2-ylmethoxy)-5-(4-(trifluoromethoxy)phenyl)benzo[d]isoxazole] | 18 | 35.8 | < 5
COc1cc(-c2ccc(OC(F)(F)F)cc2)cc2c(OCc3ncccn3)noc12 [Example 22, 7-methoxy-3-(pyrimidin-2-ylmethoxy)-5-(4-(trifluoromethoxy)phenyl)benzo[d]isoxazole] | 40 | 10.2 | < 5
Cc1cc2onc(OCc3ncccn3)c2cc1-c1ccc(C(F)(F)F)cc1F [Example 28, 5-(2-fluoro-4-(trifluoromethyl)phenyl)-6-methyl-3-(pyrimidin-2-ylmethoxy)benzo[d]isoxazole] | < 5 | 21.6 | < 5
FC(F)(F)Oc1ccc(-c2ccc3onc(OCC4CCO4)c3c2)cc1 (stereo not shown) [Example 42, 3-(oxetan-2-ylmethoxy)-5-(4-(trifluoromethoxy)phenyl)benzo[d]isoxazole] | < 5 | 27.6 | < 5
CCn1ccnc1COc1noc2ccc(-c3ccc(OC(F)(F)F)cc3)cc12 [Example 47, 3-((1-ethyl-1H-imidazol-2-yl)methoxy)-5-(4-(trifluoromethoxy)phenyl)benzo[d]isoxazole] | 31.5 | 21.7 | 8.5
FC(F)(F)Oc1ccc(-c2ccc3onc(OCc4ncco4)c3c2)cc1 [Example 53, 3-(oxazol-2-ylmethoxy)-5-(4-(trifluoromethoxy)phenyl)benzo[d]isoxazole] | < 5 | 43.4 | < 5
